US9061060B2, “Deuterated benzylbenzene derivatives and methods of use” (Theracos Inc., priority 2008, dated 2015)

Key:
human SGLT2 = target: T1, human SGLT2 (Homo sapiens, UniProt P31639); assay: Methyl-α-D-[U-14C]glucopyranoside uptake assay, cells stably expressing human SGLT2; assay type: cell-based; details: for IC50: HEK293.ETN cells expressing human SGLT2, 25% human serum, 1.5 hours; for Selectivity: SGLT1 IC50 divided by SGLT2 IC50
T1 construct: A full-length cDNA clone expressing human SGLT2 (GenScript Corporation)
T1 sequence (P31639 1-672): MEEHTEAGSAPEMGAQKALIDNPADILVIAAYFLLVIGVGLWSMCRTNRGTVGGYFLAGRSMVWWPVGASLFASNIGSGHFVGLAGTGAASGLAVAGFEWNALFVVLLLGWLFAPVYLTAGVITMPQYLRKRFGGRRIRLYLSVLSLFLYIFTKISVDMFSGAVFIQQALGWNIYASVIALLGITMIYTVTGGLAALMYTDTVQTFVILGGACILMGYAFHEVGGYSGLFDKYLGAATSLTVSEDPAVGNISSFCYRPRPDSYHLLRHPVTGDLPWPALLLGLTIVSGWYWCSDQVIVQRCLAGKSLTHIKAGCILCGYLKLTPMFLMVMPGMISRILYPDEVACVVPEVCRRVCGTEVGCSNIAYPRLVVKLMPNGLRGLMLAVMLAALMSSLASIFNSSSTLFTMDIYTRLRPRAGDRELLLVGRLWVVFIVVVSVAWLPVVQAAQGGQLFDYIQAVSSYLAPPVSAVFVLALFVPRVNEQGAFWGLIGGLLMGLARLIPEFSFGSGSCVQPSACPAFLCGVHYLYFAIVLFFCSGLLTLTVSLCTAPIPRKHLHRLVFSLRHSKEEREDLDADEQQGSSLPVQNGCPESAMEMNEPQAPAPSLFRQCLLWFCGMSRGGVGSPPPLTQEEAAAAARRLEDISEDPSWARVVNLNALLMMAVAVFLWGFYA
Source text: A full-length cDNA clone expressing human SGLT2 (GenScript Corporation) was subcloned into Hind III and Not I sites of the pEAK15 expression vector. Clones harboring the cDNA inserts were identified by restriction analysis.
A plasmid containing human SGLT2 was linearized with Nsi I and purified by agarose gel electrophoresis. Using Lipofectamine 2000 Transfection Reagent (Invitrogen Corporation), DNA was transfected into HEK293.ETN cells and cultured in Dulbecco's Modified Eagle Medium (DMEM) containing 10% fetal bovine serum (FBS) at 37° C. under 5% CO2 for 24 hours. Transfectants were selected in the same growth medium supplemented with puromycin (Invitrogen Corporation) for two weeks. Puromycin-resistant cells were recovered and seeded on a fresh 96-well plate (single cell per well) and cultured in the presence of puromycin until cells became confluent.
Cells expressing SGLT1 or SGLT2 were seeded on 96-well ScintiPlate scintillating plates (PerkinElmer, Inc.) in DMEM containing 10% FBS (1×10^5 cells per well in […] medium) incubated at 37° C. under 5% CO2 for 48 hours prior to the assay.

[1] = Metabolism in SD rats: distribution of metabolites in urine; assay type: in vivo; details: male SD rats, 50 mg/kg oral, five consecutive days, HPLC
Experimental: Each test compound was dissolved in 30% PEG400 and administered orally to male SD rats by gavages at the dose level of 50 mg/kg (when using co-crystals, the weight calculation was based on free drug) for five consecutive days. Control rats were given 30% PEG400 only. All rats were housed in metabolic cages individually. Food and water were supplied ad libitum. Clinical observations (with attention to diarrhea symptoms) were performed twice daily. Food and water consumption were determined daily. Urine was collected pre-determined intervals: pre-dose, 0-4 hours, 4-8 hours, and 8-24 hours post-dose. Metabolites were analyzed and identified by LC/MS. The structures of the metabolites were confirmed by re-synthesis or isolation from the urine by preparative HPLC and NMR analysis. On day 6, all animals were sacrificed and gross necropsy was performed. The urine from two rats for each test compound was collected and pooled. The samples were diluted (1 mL urine in 4 mL of methanol) and analyzed by LC-MS: Waters 2695 Separations Module equipped with a Waters 2996 Photodiode Array Detector and a Waters Micromass ZQ Detector; Waters XTerra C18 3.5 μm, 20 mm×2.1 mm column, 1.0 mL/min, detection at 190-400 nm; 1.7 min gradient 10-50% A, followed by 1.8 min gradient 50-95% A, hold 1 min at 95% A; solvent A: 100% acetonitrile+0.045% formic acid; solvent B: Milli-Q water+0.1% formic acid. The urine samples were analyzed from 0-4 hours, 4-8 hours, 8-24 hours and 0-24 hours after administration. The ratio of metabolites was highly consistent within each time for each rat. The metabolites were identified by mass then re-synthesized to confirm their identity and the relative distribution was assayed using HPLC. […] See also FIGS. 1, 2A-2C, 3A-3D, and 4A-4C.

SD rats = assay: Urinary glucose excretion in SD rats; assay type: in vivo; details: 1 mg/kg oral
Experimental: Each test compound was dissolved in 30% PEG400 and administered orally to overnight-fasted SD rats by gavage at the dose level of 1 mg/kg. Control rats were given 30% PEG400 only. One hour post dosing, glucose solution (2 g/kg, 10 mL/kg) was administered by oral gavage. Urine was collected within metabolic cages from 0 to 4 hours, and 4 to 24 hours post-dosing for urine volume and glucose measurement. Food was removed 16 hours before dosing and then provided 4 hours after dosing. Water was supplied ad libitum. The concentration of urinary glucose was determined at 4 hours and 24 hours post-dose using a biochemistry analyzer. Results were recorded for the periods 0-4 hours, 4-24 hours and 0-24 hours, and expressed as a percentage of the urinary glucose excretion (UGE) seen with reference compound A, which was run as a positive control in all experiments.

CYP3A4 = target: T2, CYP3A4 (Homo sapiens, UniProt P08684); assay: P450-Glo CYP screening kit, CYP3A4 inhibition; assay type: in vitro ADME; details: luminescence, read-out: IC50 3A4
T2 construct: purchased Promega
Source text: (§1) P450-Glo™ CYP Screening Kits for CYP1A2, CYP3A4 and CYP2C19 were purchased from Promega. […] Luminescence was quantified using a Victor 3 spectrophotometer (PerkinElmer).

beagle dogs = assay: Urinary glucose excretion in beagle dogs; assay type: in vivo; details: separate experiment (Table 4A)
Experimental: Each test compound was dissolved in 10% PEG400 and administered orally to overnight-fasted beagle dogs by gavage at the dose level of 0.03 mg/kg. Control dogs were given 10% PEG400 only. One hour post dosing, glucose solution (2 g/kg, 5 mL/kg) was administered by oral gavage. Urine was collected within metabolic cages from 0 to 8 hours, and 8 to 24 hours post-dosing for urine volume and glucose measurement. Food was removed 16 hours before dosing and then provided 3 hours after dosing. Water was supplied ad libitum. The concentration of urinary glucose was determined at 8 hours and 24 hours post-dose using a biochemistry analyzer.

CYP2C19 = target: T3, CYP2C19 (Homo sapiens, UniProt P33261); assay: P450-Glo CYP screening kit, CYP2C19 inhibition; assay type: in vitro ADME; details: luminescence, read-out: IC50 2C19
T3 construct: purchased Promega
Source text: as §1

T2 sequence (P08684 whole entry): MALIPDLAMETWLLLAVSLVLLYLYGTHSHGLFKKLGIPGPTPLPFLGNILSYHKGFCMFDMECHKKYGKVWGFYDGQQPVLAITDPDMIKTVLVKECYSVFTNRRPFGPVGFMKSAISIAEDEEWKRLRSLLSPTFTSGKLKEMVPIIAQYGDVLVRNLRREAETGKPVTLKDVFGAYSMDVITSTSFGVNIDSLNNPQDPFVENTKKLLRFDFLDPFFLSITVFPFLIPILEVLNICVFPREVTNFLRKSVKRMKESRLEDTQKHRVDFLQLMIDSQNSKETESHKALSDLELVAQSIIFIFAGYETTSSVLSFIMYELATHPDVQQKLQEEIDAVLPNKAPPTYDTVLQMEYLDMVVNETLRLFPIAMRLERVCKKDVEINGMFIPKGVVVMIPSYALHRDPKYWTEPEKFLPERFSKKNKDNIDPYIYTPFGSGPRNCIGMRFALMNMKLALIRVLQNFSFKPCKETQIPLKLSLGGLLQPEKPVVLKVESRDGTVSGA
T3 sequence (P33261 whole entry): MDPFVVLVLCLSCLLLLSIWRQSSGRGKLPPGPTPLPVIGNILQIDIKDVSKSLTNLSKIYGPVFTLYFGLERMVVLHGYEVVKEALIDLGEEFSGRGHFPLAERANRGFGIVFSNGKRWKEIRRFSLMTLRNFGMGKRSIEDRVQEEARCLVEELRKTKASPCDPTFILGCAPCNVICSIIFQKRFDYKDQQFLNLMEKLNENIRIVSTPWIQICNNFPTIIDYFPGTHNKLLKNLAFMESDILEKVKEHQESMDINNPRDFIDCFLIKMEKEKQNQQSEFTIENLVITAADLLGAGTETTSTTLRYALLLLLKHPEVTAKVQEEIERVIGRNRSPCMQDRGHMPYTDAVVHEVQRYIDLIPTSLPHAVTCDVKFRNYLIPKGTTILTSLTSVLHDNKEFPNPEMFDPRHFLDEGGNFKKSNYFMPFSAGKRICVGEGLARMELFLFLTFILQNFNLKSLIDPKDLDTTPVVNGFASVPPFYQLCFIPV

| SMILES | IC50 (human SGLT2) [µM] | Selectivity (human SGLT2) | Distribution of Metabolites in Urine (% of total), Peak 1 (Parent) [1] [%] | Urinary Glucose Excretion in Rats, 0-4 h, % relative to Ref A (SD rats; 0-4 h) [%] | Urinary Glucose Excretion in Rats, 0-24 h, % relative to Ref A (SD rats) [%] | Urinary Glucose Excretion in Rats, 4-24 h, % relative to Ref A (SD rats; 4-24 h) [%] | Urinary Glucose Excretion in Rats, 0-4 h (mean ± SD) (SD rats; glucose 2 g/kg 1 h post dose, 0-4 h) [mg] | Urinary Glucose Excretion in Rats, 0-24 h (mean ± SD) (SD rats; glucose 2 g/kg 1 h post dose) [mg] | Urinary Glucose Excretion in Rats, 4-24 h (mean ± SD) (SD rats; glucose 2 g/kg 1 h post dose, 4-24 h) [mg] | IC50 (CYP3A4) [µM] | Urinary Glucose Excretion in Dogs, 0-8 h (mean ± SD) (beagle dogs; 0-8 h) [mg] | Urinary Glucose Excretion in Dogs, 0-24 h (mean ± SD) (beagle dogs) [mg] | Urinary Glucose Excretion in Dogs, 8-24 h (mean ± SD) (beagle dogs) [mg] | IC50 (CYP2C19) [µM] |
| --- | --- | --- | --- | --- | --- | --- | --- | --- | --- | --- | --- | --- | --- | --- |
| COc1ccc(Cc2cc([C@@H]3O[C@H](CO)[C@@H](O)[C@H](O)[C@H]3O)ccc2Cl)cc1 [Ref B, (2S,3R,4R,5S,6R)-2-(4-chloro-3-(4-methoxybenzyl)phenyl)-6-(hydroxymethyl)tetrahydro-2H-pyran-3,4,5-triol, reference compound] | 0.0019 | 284 | 72 | 122 | 78 | 74 | 233 ± 35 | 1889 ± 361 | 1657 ± 354 | 250 | 3322 ± 464 | 16726 ± 1507 | 13404 ± 1888 | 195 |
| [2H]C([2H])([2H])Oc1ccc(C([2H])([2H])c2cc([C@@H]3O[C@H](CO)[C@@H](O)[C@H](O)[C@H]3O)ccc2Cl)cc1 [compound 19, (2S,3R,4R,5S,6R)-2-(4-chloro-3-((4-(methoxy-d3)phenyl)methyl-d2)phenyl)-6-(hydroxymethyl)tetrahydro-2H-pyran-3,4,5-triol] | 0.0008 | 1025 | 87 | – | 83 | – | – | 2096 ± 332 | – | > 1000 | – | 15928 ± 321 | 12516 ± 485 | 355 |
